Source: US8703768B2, “Nitrogen containing heteroaryl compounds” (Hoffmann-La Roche Inc., priority 2010, dated 2014)

target: human PDE10A (Homo sapiens (Human), UniProt Q9Y233); assay: human PDE10A full length Scintillation Proximity Assay (SPA); format: biochemical; conditions: 50 nM cGMP and 50 nM [3H]-cGMP, 20 minutes at room temperature; read-out: PDE10A inhibition IC50
Summary of the method: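 Full-length enzyme incubated with compounds; reaction started with cGMP plus [^3H]-cGMP substrate and run 20 min at room temperature. Stopped with yttrium silicate SPA beads in 18 mM zinc sulphate, 1 h shaking, then scintillation counting; background from enzyme-free wells.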

Chain of human PDE10A (Q9Y233 other isoform, or with tags, fused parts or gaps): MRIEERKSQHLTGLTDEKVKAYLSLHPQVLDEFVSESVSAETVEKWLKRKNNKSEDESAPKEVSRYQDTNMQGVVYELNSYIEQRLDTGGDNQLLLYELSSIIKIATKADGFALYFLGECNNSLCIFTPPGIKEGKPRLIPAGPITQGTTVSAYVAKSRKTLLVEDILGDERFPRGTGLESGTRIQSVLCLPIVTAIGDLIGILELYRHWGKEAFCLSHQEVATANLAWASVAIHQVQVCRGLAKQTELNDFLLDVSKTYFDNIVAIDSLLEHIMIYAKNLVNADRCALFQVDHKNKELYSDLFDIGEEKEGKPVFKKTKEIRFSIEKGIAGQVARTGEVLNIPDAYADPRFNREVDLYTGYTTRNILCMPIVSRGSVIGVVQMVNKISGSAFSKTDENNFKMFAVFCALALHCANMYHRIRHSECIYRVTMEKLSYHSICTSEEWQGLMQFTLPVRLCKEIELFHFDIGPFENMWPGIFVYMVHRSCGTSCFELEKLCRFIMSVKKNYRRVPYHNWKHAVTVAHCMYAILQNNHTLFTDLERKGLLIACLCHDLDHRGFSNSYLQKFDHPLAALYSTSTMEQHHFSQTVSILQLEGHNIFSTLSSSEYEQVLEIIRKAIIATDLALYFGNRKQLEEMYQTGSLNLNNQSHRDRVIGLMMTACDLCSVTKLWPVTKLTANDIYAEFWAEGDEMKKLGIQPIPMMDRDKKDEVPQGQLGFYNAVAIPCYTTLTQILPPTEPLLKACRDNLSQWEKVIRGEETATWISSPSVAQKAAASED

Point of comparison: `CC(C)(CO)NC(=O)c1ncccc1NC(=O)c1nc(C2CC2)cnc1Nc1cncnc1` [Example 273, 6-Cyclopropyl-3-(pyrimidin-5-ylamino)-pyrazine-2-carboxylic acid [2-(2-hydroxy-1,1-dimethyl-ethylcarbamoyl)-pyridin-3-yl]-amide], IC50 0.3 nM. Against it:
- CN(C(=O)c1c(NC(=O)c2nc(C3CC3)cnc2Nc2cncnc2)cnn1C)C1COC1 [Example 240, 6-Cyclopropyl-3-(pyrimidin-5-ylamino)-pyrazine-2-carboxylic acid [1-methyl-5-(methyl-oxetan-3-yl-carbamoyl)-1H-pyrazol-4-yl]-amide] — 640-fold higher, 191 nM
- CN(C)C(=O)c1ncccc1NC(=O)c1nc(C2CC2)cnc1Nc1cncnc1 [Example 129, 6-Cyclopropyl-3-(pyrimidin-5-ylamino)-pyrazine-2-carboxylic acid (2-dimethylcarbamoyl-pyridin-3-yl)-amide] — 20-fold higher, 6 nM
- CNC(=O)c1nn(CCOC)cc1NC(=O)c1nc(C2CC2)ccc1Nc1cncnc1 [Example 18, 6-Cyclopropyl-3-(pyrimidin-5-ylamino)-pyridine-2-carboxylic acid [1-(2-methoxy-ethyl)-3-methylcarbamoyl-1H-pyrazol-4-yl]-amide] — 300-fold higher, 91 nM
- CN(CCCO)C(=O)c1ccncc1NC(=O)c1nc(C2CC2)ccc1Nc1cncnc1 [Example 71, 6-Cyclopropyl-3-(pyrimidin-5-ylamino)-pyridine-2-carboxylic acid {4-[(3-hydroxy-propyl)-methyl-carbamoyl]-pyridin-3-yl}-amide] — 190-fold higher, 56.4 nM
- CNC(=O)c1nn(C)cc1NC(=O)c1nc(C2CCCCC2)ncc1Nc1cncnc1 [Example 84, 2-Cyclohexyl-5-(pyrimidin-5-ylamino)-pyrimidine-4-carboxylic acid (1-methyl-3-methylcarbamoyl-1H-pyrazol-4-yl)-amide] — 6.3-fold higher, 1.9 nM
- CNC(=O)c1nn(C)cc1NC(=O)c1nc(NCCOC)ncc1Nc1cncnc1 [Example 126, 2-(2-Methoxy-ethylamino)-5-(pyrimidin-5-ylamino)-pyrimidine-4-carboxylic acid (1-methyl-3-methylcarbamoyl-1H-pyrazol-4-yl)-amide] — 410-fold higher, 122 nM
- COCCn1cc(NC(=O)c2nc(C3CC3)ccc2Nc2cncnc2)c(C(=O)N(C)C)n1 [Example 4, 6-Cyclopropyl-3-(pyrimidin-5-ylamino)-pyridine-2-carboxylic acid [3-dimethylcarbamoyl-1-(2-methoxy-ethyl)-1H-pyrazol-4-yl]-amide] — 410-fold higher, 124 nM
- CNC(=O)c1nc(-c2ccccc2)sc1NC(=O)c1nc(C2CC2)ccc1Nc1cncnc1 [Example 64, 6-Cyclopropyl-3-(pyrimidin-5-ylamino)-pyridine-2-carboxylic acid (4-methylcarbamoyl-2-phenyl-thiazol-5-yl)-amide] — 3700-fold higher, 1110 nM
- CC(C)(O)CNC(=O)c1ccncc1NC(=O)c1nc(C2CC2)cnc1Nc1cncnc1 [Example 105, 6-Cyclopropyl-3-(pyrimidin-5-ylamino)-pyrazine-2-carboxylic acid [4-(2-hydroxy-2-methyl-propylcarbamoyl)-pyridin-3-yl]-amide] — 3.7-fold higher, 1.1 nM
- CNC(=O)c1nc(COC)ccc1NC(=O)c1nc(C2CC2)cnc1Nc1cncnc1 [Example 209, 6-Cyclopropyl-3-(pyrimidin-5-ylamino)-pyrazine-2-carboxylic acid (6-methoxymethyl-2-methylcarbamoyl-pyridin-3-yl)-amide] — 12-fold higher, 3.7 nM
- CC(C)CNC(=O)c1c(NC(=O)c2nc(C3CC3)cnc2Nc2cncnc2)cnn1C [Example 167, 6-Cyclopropyl-3-(pyrimidin-5-ylamino)-pyrazine-2-carboxylic acid (5-isobutylcarbamoyl-1-methyl-1H-pyrazol-4-yl)-amide] — 15-fold higher, 4.4 nM
- O=C(NC1CC1)c1nocc1NC(=O)c1nc(C2CC2)cnc1Nc1cncnc1 [Example 163, 6-Cyclopropyl-3-(pyrimidin-5-ylamino)-pyrazine-2-carboxylic acid (3-cyclopropylcarbamoyl-isoxazol-4-yl)-amide] — 21-fold higher, 6.2 nM
- CNC(=O)c1c(NC(=O)c2nc(C3CC3)ncc2Nc2cncnc2)cnn1C [Example 314, 2-Cyclopropyl-5-(pyrimidin-5-ylamino)-pyrimidine-4-carboxylic acid (1-methyl-5-methylcarbamoyl-1H-pyrazol-4-yl)-amide] — 110-fold higher, 34.3 nM
- CN(C)C(=O)c1nn(-c2ccccn2)cc1NC(=O)c1nc(C2CC2)ccc1Nc1cncnc1 [Example 74, 6-Cyclopropyl-3-(pyrimidin-5-ylamino)-pyridine-2-carboxylic acid (3-dimethylcarbamoyl-1-pyridin-2-yl-1H-pyrazol-4-yl)-amide] — 24-fold higher, 7.3 nM
- Cn1ncc(NC(=O)c2nc(C3CC3)cnc2Nc2cncnc2)c1C(=O)NCCF [Example 171, 6-Cyclopropyl-3-(pyrimidin-5-ylamino)-pyrazine-2-carboxylic acid [5-(2-fluoro-ethylcarbamoyl)-1-methyl-1H-pyrazol-4-yl]-amide] — 9.3-fold higher, 2.8 nM
- CNC(=O)c1nn(C)cc1NC(=O)c1nc(C2CCOC2)ccc1Nc1cncnc1 (centres unmarked) [Example 127, 3-(Pyrimidin-5-ylamino)-6-(tetrahydro-furan-3-yl)-pyridine-2-carboxylic acid (1-methyl-3-methylcarbamoyl-1H-pyrazol-4-yl)-amide] — 28-fold higher, 8.5 nM
- CNC(=O)c1nn(CC(F)(F)F)cc1NC(=O)c1nc(C2CC2)ccc1Nc1cncnc1 [Example 8, 6-Cyclopropyl-3-(pyrimidin-5-ylamino)-pyridine-2-carboxylic acid [3-methylcarbamoyl-1-(2,2,2-trifluoro-ethyl)-1H-pyrazol-4-yl]-amide] — 470-fold higher, 140 nM
- CNC(=O)c1c(NC(=O)c2nc(C3CC3)ccc2Nc2cncnc2)cnn1CCC(F)(F)F [Example 10, 6-Cyclopropyl-3-(pyrimidin-5-ylamino)-pyridine-2-carboxylic acid [5-methylcarbamoyl-1-(3,3,3-trifluoro-propyl)-1H-pyrazol-4-yl]-amide] — 670-fold higher, 202 nM
- CC1CCCCN1C(=O)c1c(NC(=O)c2nc(C3CC3)cnc2Nc2cncnc2)cnn1C (centres unmarked) [Example 235, 6-Cyclopropyl-3-(pyrimidin-5-ylamino)-pyrazine-2-carboxylic acid [1-methyl-5-(2-methyl-piperidine-1-carbonyl)-1H-pyrazol-4-yl]-amide] — 110-fold higher, 34 nM
- CN(CC1CCCO1)C(=O)c1c(NC(=O)c2nc(C3CC3)cnc2Nc2cncnc2)cnn1C (centres unmarked) [Example 257, 6-Cyclopropyl-3-(pyrimidin-5-ylamino)-pyrazine-2-carboxylic acid {1-methyl-5-[methyl-(tetrahydro-furan-2-ylmethyl)-carbamoyl]-1H-pyrazol-4-yl}-amide] — 220-fold higher, 67.1 nM
- O=C(NCC1CCCO1)c1ccncc1NC(=O)c1nc(C2CC2)cnc1Nc1cncnc1 (centres unmarked) [Example 101, 6-Cyclopropyl-3-(pyrimidin-5-ylamino)-pyrazine-2-carboxylic acid {4-[(tetrahydro-furan-2-ylmethyl)-carbamoyl]-pyridin-3-yl}-amide] — 5-fold higher, 1.5 nM
- CNC(=O)c1c(NC(=O)c2nc(C3CC3)ccc2Nc2cncnc2)cnn1C [Example 148, 6-Cyclopropyl-3-(pyrimidin-5-ylamino)-pyridine-2-carboxylic acid (1-methyl-5-methylcarbamoyl-1H-pyrazol-4-yl)-amide] — 48-fold higher, 14.4 nM
- Cn1cc(NC(=O)c2nc(C3CC3)ccc2Nc2cncnc2)c(C(=O)N2CCCC2CO)n1 (centres unmarked) [Example 49, 6-Cyclopropyl-3-(pyrimidin-5-ylamino)-pyridine-2-carboxylic acid [3-(2-hydroxymethyl-pyrrolidine-1-carbonyl)-1-methyl-1H-pyrazol-4-yl]-amide] — 13-fold higher, 3.9 nM
- O=C(Nc1cc(F)cc(F)c1C(=O)N1CCC1)c1nc(C2CC2)cnc1Nc1cncnc1 [Example 323, 6-Cyclopropyl-3-(pyrimidin-5-ylamino)-pyrazine-2-carboxylic acid [2-(azetidine-1-carbonyl)-3,5-difluoro-phenyl]-amide] — 120-fold higher, 35.9 nM
- CN(C)C(=O)c1cccc(F)c1NC(=O)c1nc(C2CC2)cnc1Nc1cncnc1 [Example 303, 6-Cyclopropyl-3-(pyrimidin-5-ylamino)-pyrazine-2-carboxylic acid (2-dimethylcarbamoyl-6-fluoro-phenyl)-amide] — 1200-fold higher, 368 nM
- CNC(=O)c1cc(OCCO)ccc1NC(=O)c1nc(C2CC2)cnc1Nc1cncnc1 [Example 216, 6-Cyclopropyl-3-(pyrimidin-5-ylamino)-pyrazine-2-carboxylic acid [4-(2-hydroxy-ethoxy)-2-methylcarbamoyl-phenyl]-amide] — 2.7-fold higher, 0.8 nM
- Cn1ncc(NC(=O)c2nc(C3CC3)cnc2Nc2cncnc2)c1C(=O)NCC(C)(F)F [Example 165, 6-Cyclopropyl-3-(pyrimidin-5-ylamino)-pyrazine-2-carboxylic acid [5-(2,2-difluoro-propylcarbamoyl)-1-methyl-1H-pyrazol-4-yl]-amide] — 7.3-fold higher, 2.2 nM
- Cn1ncc(NC(=O)c2nc(C3CC3)cnc2Nc2cncnc2)c1C(=O)NCCC(C)(C)O [Example 140, 6-Cyclopropyl-3-(pyrimidin-5-ylamino)-pyrazine-2-carboxylic acid [5-(3-hydroxy-3-methyl-butylcarbamoyl)-1-methyl-1H-pyrazol-4-yl]-amide] — 10-fold higher, 3 nM
- CN(C)C(=O)c1ccc(F)cc1NC(=O)c1nc(C2CC2)cnc1Nc1cncnc1 [Example 294, 6-Cyclopropyl-3-(pyrimidin-5-ylamino)-pyrazine-2-carboxylic acid (2-dimethylcarbamoyl-5-fluoro-phenyl)-amide] — 64-fold higher, 19.3 nM
- CC1CCCN1C(=O)c1c(NC(=O)c2nc(C3CC3)cnc2Nc2cncnc2)cnn1C (centres unmarked) [Example 239, 6-Cyclopropyl-3-(pyrimidin-5-ylamino)-pyrazine-2-carboxylic acid [1-methyl-5-(2-methyl-pyrrolidine-1-carbonyl)-1H-pyrazol-4-yl]-amide] — 160-fold higher, 47.7 nM
- CNC(=O)c1ncncc1NC(=O)c1nc(C2CC2)cnc1Nc1cncnc1 [Example 218, 5-{[6-Cyclopropyl-3-(pyrimidin-5-ylamino)-pyrazine-2-carbonyl]-amino}-pyrimidine-4-carboxylic acid methylamide] — 17-fold higher, 5.2 nM
